Data from publication PMC8942850, “Boron clusters as broadband membrane carriers” (Nature, 2022).
Like-named read-outs stand apart in the source and are kept apart here. Residues, ends and D or L forms follow the SMILES beside them.

Tests used:
[1] = HPTS/DPX transport assay in zwitterionic EYPC vesicles; format: in vitro ADME; set-up: key to Et: Et = Ymax × (pEC50/ft); pEC50 = −log EC50; conditions: for Et transport efficiency: Et = Ymax × (pEC50/ft), ft = 19.8 so that WR7 equals 10.0, B12Br12^2− (40 μM) carrier, 5% error (SD) unless stated; for Ymax (%) maximal activity, transport of cargo / EC50: cargo concentration varied, B12Br12^2− (40 μM) as common carrier, EYPC⊃HPTS/DPX vesicles, pH 7.4, Hill analysis, 10% error (SD) unless stated, n.t. = no detectable transport; for Ymax (%) maximal activity, transport of cargo: 13 µM lipid, 10 mM Tris, 107 mM NaCl, HPTS fluorescence; for EC50: read-out: EC50 (μM) effective cargo concentration to reach 50% of Ymax
Procedure: The well-established HPTS/DPX assay, which uses 8-hydroxypyrene-1,3,6-trisulfonate (HPTS) and p-xylene-bis-pyridinium (DPX), was implemented to monitor peptide-transport activation (Fig. 2a). […] A surfactant (Triton X-100) was added at the end of the experiment (t = 600 s) to release all vesicle content and normalize the fluorescence intensity data.
Fig. 2 Carrier activity obtained from the HPTS/DPX assay. a, Schematic representation of the transport of otherwise impermeable analytes facilitated by superchaotropic cluster anions with encapsulated HPTS/DPX probe/quencher pair used for signalling. […] Concentrations of carrier and cargo, when fixed, were 40 and 20 µM, respectively, unless explicitly stated. Source data
A thin lipid film was prepared by evaporating a lipid solution with a stream of nitrogen and then dried in vacuo overnight.
Fluorescence intensities were normalized to fractional emission as I(t) = (It − I0)/(I∞ − I0), where I0 = It before cluster addition and I∞ = It after lysis.
In the activator measurements, in which different activators were tested with the same cargo, the activator efficiency (Ea) is determined from their ability to activate the transport of an impermeable cargo molecule and is characterized by Ymax, its maximal activity, and EC50, the effective activator concentration. A potent activator reaches high Ymax at low EC50. To reflect both factors, the activator efficiency is defined as Ea = Ymax × (pEC50/fa), where pEC50 is the negative logarithm of EC50.
In the transport measurements, in which different types of cargo were tested with the same activator, the transport efficiency (Et) reports on the sensitivity of the cargo for being transported and is described by Ymax, the maximal activity, and EC50, the effective cargo concentration. An easily accessible cargo reaches high Ymax at low EC50. The transport efficiency is defined as a composition of both parameters according to Et = Ymax × (pEC50/ft), where pEC50 is the negative logarithm of EC50.
Extended Data Fig. 3 Transport activity. a, Transport activity, Y, in EYPC⊃HPTS/DPX vesicles as a function of cluster concentration at constant cargo concentration (WR7, 20 µM). b, Transport activity, Y, for B12Br12^2− (40 µM) in EYPC⊃HPTS/DPX vesicles as a function of the concentration of different cargo types; red lines correspond to the resulting fit with the Hill equation. Source data

[2] = system: HeLa cells; assay: MTT viability with MMAF in absence or presence of B12Br12^2−; format: cell-based; conditions: for mean_viability: cluster 0, mean of three technical replicates; for IC50: MMAF
Procedure: The incubation mixtures were replaced with DMEM + 10% FBS + 0.5 mg ml^–1 MTT. For the viability assays in the presence of B12Br12^2− or R8, HeLa, GT1-7, ARPE-19 and A549 cells were seeded the day before in 96-well plates at 6,000 cells per well. Cells were incubated with B12Br12^2− or R8 dissolved in HKR buffer for 3 h and, thereafter, incubated for 24 h with complete medium before incubating with complete medium and 0.5 mg ml^−1 MTT. For viability studies in the presence of MMAF, HeLa cells were incubated with MMAF and B12Br12^2− diluted in DMEM (without serum or antibiotics) for 3 h. Cells were washed with 0.1 mg ml^−1 heparin and further incubated for 21 h in complete medium and 2 h in complete medium containing 0.5 mg ml^−1 MTT. For all types of assays, after 2 h of incubation, the medium was carefully removed, and formazan crystals dissolved by addition of DMSO. The absorbance at 570 nm was measured with a plate reader (Tecan Infinite F200Pro) and the data normalized to the value of untreated cells (100% viability). Data were analysed with R (v. 4.0.3)[54].
Solid points indicate mean ± s.d. of three technical replicates. […] Cross-bars indicate mean ± s.d. of three independent experiments (two with technical triplicates, one with technical duplicates); values obtained in each experiment are represented by different shapes. c, Viability […] Solid points indicate mean ± s.d. of three technical replicates. d, Corresponding IC50 values of MMAF. Cross-bars indicate mean ± s.d. of four independent experiments, each with technical triplicates; each experiment is represented by a different shape. e, E. coli Top10 viability in the presence of different concentrations of kanamycin A monosulphate (0–3.5 μg/mL) and B12Br12^2− (0–1,000 μM) in LB broth at 37 °C; data are mean ± s.d. of triplicate measurements. Source data

Molecule | Et transport efficiency [1] | Et ([1]; Fig.2 d, per analyte (cargo)) | Ymax (%) maximal activity, transport of cargo [1] | EC50 [1] | Et [1] | other results
N[C@@H](Cc1ccccc1)C(=O)O [Phenylalanine] | 0.5 ± 0.2 | 0.5 | 10 ± 4% | 109 µM |  | 
CC[C@H](C)[C@@H]([C@@H](CC(=O)N1CCC[C@H]1[C@H](OC)[C@@H](C)C(=O)N[C@@H](Cc1ccccc1)C(=O)O)OC)N(C)C(=O)[C@@H](NC(=O)[C@@H](NC)C(C)C)C(C)C [MMAF, monomethyl auristatin F] (HELM PEPTIDE1{[meV].V.[CC[C@H](C)[C@@H]([C@@H](CC(=O)[*:2])OC)N(C)[*:1]].[CO[C@H]([C@@H](C)C(=O)[*:2])[C@@H]1CCCN1[*:1]].F}$$$$V2.0) |  |  |  |  |  | mean_viability ([2]; MMAF 39.0625 nM): 103.936; percent_viability ([2]; MMAF 39.0625 nM, cluster 0, technical replicate 1): 103.03; percent_viability ([2]; MMAF 39.0625 nM, cluster 0, technical replicate 2): 107.013; percent_viability ([2]; MMAF 39.0625 nM, cluster 0, technical replicate 3): 101.765; mean_viability ([2]; MMAF 78.125 nM): 83.7598; percent_viability ([2]; MMAF 78.125 nM, cluster 0, technical replicate 1): 94.8234; IC50 ([2]; cluster 0, 3 h in DMEM + 21 h medium, experiment_2, read-out: IC50): 1.21 µM; IC50 ([2]; cluster 0, 3 h in DMEM + 21 h medium, experiment_3, read-out: IC50): 1.29 µM; IC50 ([2]; cluster 0, 3 h in DMEM + 21 h medium, experiment_4, read-out: IC50): 1.41 µM; IC50 ([2]; cluster 0, 3 h in DMEM + 21 h medium, mean of four independent experiments, read-out: mean_IC50): 1.21 µM; IC50 ([2]; cluster 5 µM as printed, 3 h in DMEM + 21 h medium, experiment_1, read-out: IC50): 0.512 µM; IC50 ([2]; cluster 5 µM as printed, 3 h in DMEM + 21 h medium, experiment_2, read-out: IC50): 0.709 µM; IC50 ([2]; cluster 5 µM as printed, 3 h in DMEM + 21 h medium, experiment_3, read-out: IC50): 0.905 µM; IC50 ([2]; cluster 5 µM as printed, 3 h in DMEM + 21 h medium, experiment_4, read-out: IC50): 0.87 µM; IC50 ([2]; cluster 10 µM as printed, 3 h in DMEM + 21 h medium, experiment_1, read-out: IC50): 0.467 µM; IC50 ([2]; cluster 10 µM as printed, 3 h in DMEM + 21 h medium, experiment_2, read-out: IC50): 0.568 µM; IC50 ([2]; cluster 10 µM as printed, 3 h in DMEM + 21 h medium, experiment_3, read-out: IC50): 0.66 µM; IC50 ([2]; cluster 10 µM as printed, 3 h in DMEM + 21 h medium, experiment_4, read-out: IC50): 0.583 µM; IC50 ([2]; cluster (B12Br12^2−) 5 mM as printed, 3 h in DMEM + 21 h medium, mean of four independent experiments, read-out: mean_IC50): 0.749 µM; IC50 ([2]; cluster (B12Br12^2−) 10 mM as printed, 3 h in DMEM + 21 h medium, mean of four independent experiments, read-out: mean_IC50): 0.569 µM
CC1(C)S[C@@H]2[C@H](NC(=O)[C@H](N)c3ccccc3)C(=O)N2[C@H]1C(=O)O [Ampicillin, ampicillin, reference compound] | 4.5 |  | 74% | 63 µM | 4.5 | 
phalloidin [reference compound] | 2.3 ± 0.3 |  | 90 ± 10% | 310 ± 70 µM | 2.3 | 
protamine | 10.0 | 10 | 76% | 2.4 µM |  | 
CC(=O)OCC[N+](C)(C)C [Acetylcholine, acetylcholine] | 7.0 | 7 | 75% | 13.8 µM |  | 
CNC(=C[N+](=O)[O-])NCCSCc1ccc(CN(C)C)o1 [Ranitidine, reference compound] | 3.9 | 3.9 | 70% | 75.9 µM |  | 
Cc1ncc(C[n+]2csc(CCO)c2C)c(N)n1 [Vitamin B1] | 6.5 | 6.5 | 73% | 16.6 µM |  | 
CC(=O)O[C@H]1C[C@@H]2CC[C@@H]3[C@H](CC[C@@]4(C)[C@H]3C[C@H]([N+]3(C)CCCCC3)[C@@H]4OC(C)=O)[C@@]2(C)C[C@@H]1N1CCCCC1 [Vecuronium, reference compound] | 3.5 |  | 64% | 50.6 µM | 3.5 | 
N[C@@H](Cc1c[nH]c2ccccc12)C(=O)O [Tryptophan] | 9.6 |  | 72% | 2.4 µM | 9.6 | 
